# Assays:
# [1] = biological target: T1, FAK phosphorylated at Y397 in HEK-FAK cell line overexpressing human FL FAK protein (Homo sapiens, UniProt Q05397); assay: Cell based assay, Phospho-FAK ELISA; settings: HEK stb; read-out: pFAK EC50 (μM) HEK stb
# T1 construct: expressed in transfected cells
# Excerpt: D. Cell Based Assay-Phospho-FAK ELISA
# The DuoSet IC ELISA (R&D systems—Cat no. DYC4528-5) provided the basic components required for the development of sandwich ELISAs to measure Focal Adhesion Kinase 1 (FAK) phosphorylated at Y397 in cell lysates. An immobilized capture antibody specific for FAK, also known as PTK2, binds both phosphorylated and unphosphorylated protein. After washing away unbound material, a biotinylated detection antibody specific for FAK phosphorylated at Y397 was used to detect only phosphorylated protein, utilizing a standard Streptavidin-HRP format. The cell line used for the assay was a stable HEK-FAK cell line overexpressing human FL FAK protein, which was generated as follows.
# HEK293 cells (ATCC® CRL-1573™, 10801 University Boulevard, Manassas, Va. 20110 USA) were seeded in four 100 mm petri dishes at a seeding density of 1.5×10^6 cells per plate and incubated overnight at 37° C. in a 5% CO2 incubator. The transfection mix was prepared as follows. (A) 10 μg DNA (pCDNA4 V5/HisA vector containing Zeocin as mammalian selection marker, procured from Invitrogen) with the full length human FAK gene represented by the nucleotide sequence provided in NCBI Reference Sequence: NM_153831.3, SEQ ID NO: 1:
# was added to 1.5 mL Opti-MEM® (reduced serum media is a modification of Eagle's Minimum Essential Media, buffered with HEPES and sodium bicarbonate and supplemented with hypoxanthine, thymidine, sodium pyruvate, L-glutamine, trace elements and growth factors commercially available from Invitrogen) and incubated at room temperature for 5 minutes. (B) 30 μL Lipofectamine™ Transfection reagent (Life Technologies) was added to 1.5 mL Opti-MEM® and incubated at room temperature for 5 minutes. Following this, (a) and (b) were mixed and incubated at room temperature for 20 minutes. Media was removed from cells and washed with 1× phosphate buffered saline (PBS) and the transfection mix prepared above was mixed with 3 mL of Opti-MEM®, added to the cells and incubated at 37° C. Four hours later, 6 mL of 20% Dulbecco's Modified Eagle Medium (DMEM) was added to the plates and incubated at 37° C. in a 5% CO2 incubator. Approximately 72 hours after transfection, cells were subcultured at various dilutions with fresh medium containing 0.8 mg/mL Zeocin™ (Life Technologies). Cells were replenished with selective medium every 3-4 days until cell foci were identified in the FAK transfected cells and most of the cells died in the control plates. Cells from these foci were grown in the presence of selective media and the expression of FAK was confirmed by Western Blotting. Over expression of FAK in the stably-transfected cells was quantified in the cell-based ELISA assay described below by determining the signal window, with a signal window of 2 or above considered to be robust). The HEK-FAK stable cell line thus was maintained in 0.8 mg/mL Zeocin™ (Life Technologies) and used in cell-based ELISA to assess autophosphorylation of FAK.
# (i) Materials • 1. Phospho-FAK (Y397)-Capture Antibody • 2. Phospho-FAK (Y397)-Detection Antibody • 3. Streptavidin-HRP • 4. Cells used for the assay-HEK over expressing human FL FAK protein
# (ii) Solutions • PBS—137 mM NaCl, 2.7 mM KCl, 8.1 mM Na2HPO4, 1.5 mM KH2PO4, pH 7.2-7.4, 0.2 μm filtered. • Wash Buffer—0.05% Tween20™ in PBS, pH 7.2-7.4 • Block Buffer—1% BSA, 0.05% NaN3, in PBS, pH 7.2-7.4. • IC Diluent #1-1% BSA in PBS, pH 7.2-7.4, 0.2 μm filtered. • IC Diluent #8-1 mM EDTA, 0.5% Triton™ X-100, 5 mM NaF in PBS, pH 7.2-7.4. IC Diluent #8 was also the base buffer for IC Diluent #3, IC Diluent #7, and Lysis. • Buffer #6. […]
# Recombinant Src enzyme = biological target: T2, Recombinant Src enzyme (Homo sapiens, UniProt P12931); assay: Src HTRF assay; type: biochemical
# T2 construct: purchased Millipore 14-326; host or cells: Sf21 insect cells
# T2 sequence (P12931 whole entry): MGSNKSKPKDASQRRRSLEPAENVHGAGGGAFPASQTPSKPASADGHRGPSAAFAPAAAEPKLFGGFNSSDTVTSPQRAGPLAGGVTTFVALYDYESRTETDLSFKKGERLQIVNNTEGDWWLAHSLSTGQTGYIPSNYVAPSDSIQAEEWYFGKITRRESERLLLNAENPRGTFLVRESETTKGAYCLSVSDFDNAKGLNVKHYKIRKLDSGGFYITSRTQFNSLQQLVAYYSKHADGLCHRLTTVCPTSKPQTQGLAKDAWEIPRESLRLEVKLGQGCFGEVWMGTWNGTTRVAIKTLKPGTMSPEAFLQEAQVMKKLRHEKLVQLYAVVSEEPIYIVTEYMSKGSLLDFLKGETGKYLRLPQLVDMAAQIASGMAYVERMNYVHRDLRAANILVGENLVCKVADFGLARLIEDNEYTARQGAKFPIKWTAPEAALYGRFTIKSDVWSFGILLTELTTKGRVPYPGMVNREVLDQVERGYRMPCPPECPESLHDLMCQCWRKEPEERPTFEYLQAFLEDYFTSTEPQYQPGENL
# Procedure, shortened: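 Sf21-expressed recombinant Src at 5 nM final with biotinylated N-terminally tagged Tyk2 peptide substrate at 0.5 μM final; a component freshly made in enzyme assay buffer pH7.4 was used at 10 μM final. Buffer, supplements, compound handling and procedure as in the FAK HTRF assay; dasatinib included.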
# AURKB (Aurora B) enzyme = biological target: T3, AURKB (Aurora B) enzyme (Homo sapiens, UniProt Q96GD4); assay: Aurora B HTRF assay; type: biochemical; settings: read-out: AuroraB IC50
# T3 construct: purchased Invitrogen PVR 130
# T3 sequence (Q96GD4 whole entry): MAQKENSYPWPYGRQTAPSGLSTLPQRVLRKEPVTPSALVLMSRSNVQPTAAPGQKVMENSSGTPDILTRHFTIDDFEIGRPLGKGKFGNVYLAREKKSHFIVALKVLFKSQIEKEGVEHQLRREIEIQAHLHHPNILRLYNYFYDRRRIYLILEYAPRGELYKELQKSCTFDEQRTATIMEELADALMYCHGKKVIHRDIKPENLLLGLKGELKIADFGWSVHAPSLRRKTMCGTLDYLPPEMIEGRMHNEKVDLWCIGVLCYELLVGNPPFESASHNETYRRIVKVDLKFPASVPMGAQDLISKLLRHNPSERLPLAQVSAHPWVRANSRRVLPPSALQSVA
# Procedure, shortened: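 HTRF kinase assay with 5 nM Aurora B and 50 nM ULight-PLK (Ser137) peptide, with a reagent at 30 μM final; 1 h at rt. Reaction stopped with EDTA, and phospho-peptide detected with 2 nM Eu-anti-P-PLK(Ser137) antibody after 1 h at rt, read as HTRF.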
# recombinant human FAK1 = biological target: T4, recombinant human FAK1 (Homo sapiens, UniProt Q05397); assay: FAK1 HTRF assay; type: biochemical
# T4 construct: fused on or other part: N-terminal 6xHis tag
# T4 sequence (Q05397 422-680 limits assumed): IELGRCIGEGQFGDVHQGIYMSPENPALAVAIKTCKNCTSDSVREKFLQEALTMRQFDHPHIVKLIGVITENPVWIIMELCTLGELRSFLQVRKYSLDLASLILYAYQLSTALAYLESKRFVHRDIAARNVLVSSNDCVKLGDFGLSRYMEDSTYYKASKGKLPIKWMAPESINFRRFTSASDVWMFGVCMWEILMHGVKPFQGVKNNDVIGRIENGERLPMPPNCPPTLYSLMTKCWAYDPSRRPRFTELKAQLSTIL
# Procedure, shortened: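 His-tagged human FAK1 (residues 692–end, Sf9-expressed), 10 nM final, with 0.5 μM biotinylated gastrin-precursor Tyr87 peptide and a 10 μM final reagent in pH 7.4 buffer, 45 min at rt. Detection used Eu anti-pTyr antibody plus SA-APC (665/620 nm). Compounds top concentration 10 μM; IC50 from % inhibition.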
# T1 sequence (Q05397 whole entry): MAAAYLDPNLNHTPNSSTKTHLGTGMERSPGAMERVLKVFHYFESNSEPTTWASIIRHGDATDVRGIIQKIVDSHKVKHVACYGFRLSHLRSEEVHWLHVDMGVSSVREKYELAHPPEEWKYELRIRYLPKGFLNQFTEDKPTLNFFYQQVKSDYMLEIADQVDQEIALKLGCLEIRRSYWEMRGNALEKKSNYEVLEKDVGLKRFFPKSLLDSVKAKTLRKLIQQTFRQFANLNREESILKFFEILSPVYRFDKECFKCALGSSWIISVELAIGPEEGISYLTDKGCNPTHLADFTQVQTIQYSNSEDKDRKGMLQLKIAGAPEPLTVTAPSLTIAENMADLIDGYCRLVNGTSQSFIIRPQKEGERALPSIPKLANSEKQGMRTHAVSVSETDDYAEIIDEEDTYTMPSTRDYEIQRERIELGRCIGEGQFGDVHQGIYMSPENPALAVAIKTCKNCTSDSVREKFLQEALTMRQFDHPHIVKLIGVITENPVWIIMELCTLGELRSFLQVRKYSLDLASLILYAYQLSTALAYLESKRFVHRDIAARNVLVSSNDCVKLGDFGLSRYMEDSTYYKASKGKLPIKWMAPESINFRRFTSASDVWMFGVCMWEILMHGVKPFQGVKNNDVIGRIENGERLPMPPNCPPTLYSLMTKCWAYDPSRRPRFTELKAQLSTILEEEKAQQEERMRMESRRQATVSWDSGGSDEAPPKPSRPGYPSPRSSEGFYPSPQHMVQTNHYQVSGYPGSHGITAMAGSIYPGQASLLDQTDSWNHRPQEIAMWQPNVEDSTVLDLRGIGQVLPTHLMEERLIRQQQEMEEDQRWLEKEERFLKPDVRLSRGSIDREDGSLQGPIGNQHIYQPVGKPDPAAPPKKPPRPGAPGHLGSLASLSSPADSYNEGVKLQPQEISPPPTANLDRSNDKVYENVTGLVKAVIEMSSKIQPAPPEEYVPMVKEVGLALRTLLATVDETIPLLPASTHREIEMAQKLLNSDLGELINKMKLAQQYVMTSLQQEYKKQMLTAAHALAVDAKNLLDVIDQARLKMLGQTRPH
SMILES,EC50 [1] [µM],IC50 (Recombinant Src enzyme) [nM],IC50 (AURKB (Aurora B) enzyme) [nM],IC50 (recombinant human FAK1) [nM]
CN(c1ccccc1Cn1ccc2cnc(Nc3ccc(-n4ccccc4=O)cc3)nc21)S(C)(=O)=O [Example 576],> 1,> 1000,–,–
CN(c1ncccc1CN1c2nc(Nc3ccc(N4CCNCC4)cc3)ncc2C(C)(C)C1O)S(C)(=O)=O (stereo not shown) [Example 455],> 1,> 1000,–,–
O=S(=O)(c1cccc2cccnc12)n1ccc2cnc(Nc3cnn(C4CCNCC4)c3)nc21 [Example 355],> 1,–,< 20,–
CC1(C)CN(c2ccccn2)c2nc(Nc3ccc(N4CCNCC4)cc3)ncc21 [Example 534],> 1,–,> 1000,–
COc1cc(N2CCN(CCOC(C)=O)CC2)ccc1Nc1cc2c(ccn2S(=O)(=O)c2cccc3cccnc23)cn1 [Example 451],< 0.02,> 1000,–,< 20
COc1cc(N2CCN(CCO)CC2)ccc1Nc1cc2c(ccn2S(=O)(=O)c2cccc3cccnc23)cn1 [Example 386],< 0.02,> 1000,–,< 20
COc1ccccc1S(=O)(=O)N1CCc2cnc(Nc3ccc(N4CCNCC4)cc3)nc21 [Example 344],> 1,–,< 20,–
CS(=O)(=O)Nc1ccccc1Cn1ccc2cnc(Nc3ccc(N4CCNCC4)cc3)nc21 [Example 519],> 1,< 20,–,–
CN(c1ncccc1Cn1ccc2cnc(Nc3ccc4c(c3)NCCO4)nc21)S(C)(=O)=O [Example 215],> 1,< 20,–,< 20
C[C@@H]1CNCCN1c1ccc(Nc2cc3c(ccn3S(=O)(=O)c3ccccc3C#N)cn2)cc1 [Example 479],> 1,–,< 20,–
CN(c1ncccc1Cn1ccc2cnc(Nc3ccc(N4CC5CC4CN5)cc3)cc21)S(C)(=O)=O (stereo not shown) [Example 371],> 1,> 1000,–,–
O=S(=O)(c1cccc2cccnc12)n1ccc2cnc(Nc3ccc(CN4CCCC(CO)C4)cc3)nc21 (stereo not shown) [Example 247],< 0.02,–,< 20,< 20
CNC1CCN(c2ccc(Nc3ncc4c(n3)N(S(=O)(=O)c3cccc5ccccc35)CC4(C)C)cc2)CC1 [Example 707],> 1,> 1000,–,–
COc1cc(N2CCNCC2)ccc1Nc1ncc2ccn(S(=O)(=O)c3cccc4ccc(C)nc34)c2n1 [Example 365],> 1,> 1000,–,–
CN(C)C1CCN(c2ccc(Nc3ncc4c(n3)N(S(=O)(=O)c3cccc5ccccc35)CC4(C)C)cc2)CC1 [Example 755],> 1,> 1000,–,–
C[C@H]1CN(c2ccc(Nc3ncc4ccn(S(=O)(=O)c5ccccc5C#N)c4n3)cc2)CCN1 [Example 242],> 1,–,< 20,–

SMILES,EC50 [1] [µM],IC50 (Recombinant Src enzyme) [nM],IC50 (AURKB (Aurora B) enzyme) [nM],IC50 (recombinant human FAK1) [nM]
CN(C)C1CN(c2ccc(Nc3cc4c(ccn4S(=O)(=O)c4ccccc4C#N)cn3)cc2)C1 [Example 623],> 1,> 1000,–,–
CN(c1ccccc1Cn1ccc2cnc(Nc3ccc(N4CCNCC4=O)cc3)nc21)S(C)(=O)=O [Example 550],> 1,–,< 20,< 20
N#Cc1ccccc1S(=O)(=O)n1ccc2cnc(Nc3ccc4c(c3)CC(=O)N4)cc21 [Example 514],> 1,> 1000,–,< 20
COc1cc(N2CCN(CCO)CC2)ccc1Nc1cc2c(cn1)cnn2S(=O)(=O)c1cccc2cccnc12 [Example 387],< 0.02,> 1000,–,< 20
COc1cc(C(=O)N2CCOCC2)c(F)cc1Nc1ncc2ccn(Cc3ccccc3N(C)S(C)(=O)=O)c2n1 [Example 512],> 1,> 1000,–,–
COc1cccc(N(C)S(C)(=O)=O)c1Cn1ccc2cnc(Nc3ccc(N4CCN[C@@H](C)C4)cc3)nc21 [Example 701],> 1,> 1000,–,–
COc1cc(N2CCC(O)CC2)ccc1Nc1cc2c(ccn2S(=O)(=O)c2cccc3cccnc23)cn1 [Example 400],< 0.02,> 1000,–,< 20
Cn1cc(Nc2cc3c(cn2)cnn3S(=O)(=O)c2cccc3cccnc23)cn1 [Example 349],> 1,> 1000,–,–
CN(c1ncccc1Cn1ccc2cnc(Nc3ccc(N4CCOCC4)cc3)cc21)S(C)(=O)=O [Example 397],> 1,> 1000,–,–
CN(c1ncccc1Cn1ccc2cnc(Nc3ccc4c(c3)CC(=O)N4CCO)nc21)S(C)(=O)=O [Example 615],> 1,–,< 20,–
CN(c1ncccc1Cn1ccc2cnc(Nc3ccc4[nH]c(=O)[nH]c4c3)nc21)S(C)(=O)=O [Example 77],> 1,–,–,< 20
N#Cc1ccccc1S(=O)(=O)n1ncc2cnc(Nc3ccc(N4CCN(CCO)CC4)cc3)cc21 [Example 419],> 1,> 1000,–,–
CC1(C)CN(S(=O)(=O)c2cccc3cccnc23)c2nc(Nc3ccc(N4CCN(CC(=O)O)CC4)cc3)ncc21 [Example 699],> 1,> 1000,–,–
COc1cc(Nc2ncc3ccn(S(=O)(=O)c4cccc5cccnc45)c3n2)ccc1N1CCNCC1 [Example 198],< 0.02,–,< 20,< 20
Cc1cc(Nc2ncc3ccn(S(=O)(=O)c4cccs4)c3n2)ccc1N1CCNCC1 [Example 229],> 1,< 20,–,–
COc1cc(Nc2ncc3ccn(S(=O)(=O)c4cccc5cccnc45)c3n2)cc(OC)c1OC [Example 392],> 1,–,< 20,–
